Laboratory results taken from patent EP1081144A2, “Process for making 5-lipoxygenase inhibitors having varied heterocyclic ring systems” (Pfizer Products Inc., priority 1999, dated 2001).
In brackets after ≈: the same amount, converted by molar mass.

Assay: Solubility of the reaction product in acetic acid and in acetic acid/water
Assay type: physicochemical
Details: organic solvent or mixture
Experimental: The reaction mixture was cooled to 22°C and granulated for 1 hour. The resulting slurry was then vacuum filtered and the filter cake was washed twice with water (100 ml). The filter cake (75 g) was placed in a 50°C vacuum drier with a nitrogen bleed, after which 23.04 g of solid product were obtained for a yield of 74.0%.

solubility (in a 2:1 mixture of acetic acid and water): ~4.5 mg/mL (≈ 13.6 mM)
solubility (in acetic acid at room temperature): ~62 mg/mL (≈ 187 mM)
SMILES: NC(=O)C1(c2cccc(Sc3ccc(F)cc3)c2)CCOCC1 [Example 3, tetrahydro-4-[3-(4-fluorophenyl)thio]phenyl-2H-pyran-4-carboxamide]
